Active and inactive are the calls of the source. How the calls were made is not given here.
Molecular target: Caspase-6 (Homo sapiens) (UniProt P55212)
Assay: human caspase-6 inhibitors, dose response, biochemical, VEID-R110 fluorescence, cherry-pick (AID 720632)
Conditions: caspase-6, VEID-R110 fluorogenic substrate

Chain of Caspase-6 (Homo sapiens) (P55212 24-179 limits assumed): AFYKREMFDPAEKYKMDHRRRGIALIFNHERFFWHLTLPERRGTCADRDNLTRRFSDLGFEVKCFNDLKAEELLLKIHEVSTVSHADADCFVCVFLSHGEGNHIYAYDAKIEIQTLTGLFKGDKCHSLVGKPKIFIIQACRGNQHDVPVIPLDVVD
Chain of Caspase-6 (Homo sapiens) (P55212 194-293 limits assumed): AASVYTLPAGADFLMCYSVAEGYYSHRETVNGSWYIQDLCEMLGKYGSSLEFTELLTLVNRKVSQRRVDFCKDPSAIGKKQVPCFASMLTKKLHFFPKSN

SMILES | activity change, negative = inhibition (at 26 µM (top of the series)) | activity change, negative = inhibition (at 23.5 µM (top of the series))
O=C(COC(=O)c1ccc([N+](=O)[O-])o1)NC1CCCCC1 | inactive | –
COc1ccc(S(=O)(=O)Nc2ccc(O)c(Sc3ncn[nH]3)c2)cc1 | inactive | –
COC(=O)c1ccc(CNC(=O)COC(=O)c2ccccc2-c2ccccc2)cc1 | inactive | –
COc1ccccc1C(=O)Nc1ccc2c(c1)OC[C@@H](C)N(CC1CC1)C[C@H](C)[C@@H](OC)CN(C)C2=O | inactive | –
O=C(NCCc1ccccc1)c1cccc2c(-c3ccc(F)c(F)c3)coc12 | inactive | –
O=C(CNC(=O)c1ccccc1F)N/N=C/c1ccc2c(c1)OCO2 | inactive | –
O=C(OCc1ccccc1)N1CCCC2CC1c1ccccc12 (stereo not drawn) | inactive | –
CC(C)CNC(=O)c1cccc2c(-c3ccc(F)c(F)c3)coc12 | inactive | –
CSc1ccccc1NC(=O)Nc1ccccc1 | inactive | –
CN1CCN(C(=O)c2cc(Cl)cc(Cl)c2)CC1 | inactive | –
CCC(C)Nc1nc2c(C)cccn2c(=O)c1C=Nc1ccc(OC)cc1 (stereo not drawn) | inactive | –
Cc1cc(N2CCCC2)ccc1NC(=O)CN1C(=O)NC2(CCCCC2)C1=O | inactive | –
CCC(=O)Nc1ccc2c(c1)OC[C@@H](C)N(C(=O)CC)C[C@@H](C)[C@@H](OC)CN(C)C2=O | inactive | –
Cc1ccc(C(=O)N/N=C\c2ccc(OC(=O)c3cccc(F)c3)cc2)cn1 | inactive | –
CCC(NS(=O)(=O)c1ccc(C)cc1)C(=O)N1CCOCCOCCOCC1 (stereo not drawn) | inactive | –
NC[C@H](O)c1ccc(O)c(O)c1 | inactive | –
CCCN1C[C@@H](C)[C@H](OC)CN(C)C(=O)c2ccc(NC(=O)CC)cc2OC[C@@H]1C | inactive | –
CO[C@H]1CN(C)C(=O)c2cc(NC(=O)C3CC3)ccc2OC[C@H](C)N(C(=O)c2ccccc2)C[C@H]1C | inactive | –
CO[C@@H]1CN(C)C(=O)c2ccc(NC(=O)C3CC3)cc2OC[C@@H](C)N(Cc2cccc(F)c2)C[C@@H]1C | – | inactive
CCC(=O)N1CCC1(C)C(=O)Nc1cccc2cccnc12 (stereo not drawn) | inactive | –
CN1CC(=O)N2Cc3[nH]c4ccccc4c3C[C@H]2C1=O | inactive | –
CCOC(=O)C1(Cc2ccccc2C)CCCN(C(=O)CCc2cccnc2)C1 (stereo not drawn) | inactive | –
COc1ccc(S(=O)(=O)N2CCOCC2)cc1C(=O)NCC(c1ccccc1)c1ccccc1 | inactive | –
Cn1c(C(=O)N2CCCC(Nc3ccc(F)cc3)C2)cc2ccccc21 (stereo not drawn) | inactive | –
Cc1ccc([N+](=O)[O-])cc1NC(=O)C(C)N1CCCCC1 (stereo not drawn) | inactive | –
O=C(O)C1C=Cc2ccccc2N1C(=O)c1ccccc1 (stereo not drawn) (tested in a mixture with another compound) | inactive | –

SMILES | activity change, negative = inhibition (at 26 µM (top of the series)) | activity change, negative = inhibition (at 23.5 µM (top of the series))
O=C(N/N=C/c1coc2ccccc2c1=O)c1cc(Br)ccc1O | inactive | –
O=C(NN=C1CCCC1)c1n[nH]c2c1CCC2 | inactive | –
O=C(OCC(=O)N1CCN(c2ccccc2)CC1)c1ccc([N+](=O)[O-])s1 | inactive | –
CN1CC2([N+](=O)[O-])CC=C(OCCO)C([N+](=O)[O-])(C1)C2 (stereo not drawn) | inactive | –
Cc1cc(C)c(NC(=O)COC(=O)c2ccc([N+](=O)[O-])s2)c(C)c1 | inactive | –
Cc1ccccc1CN(C)C(=O)COC(=O)CSc1ccc([N+](=O)[O-])cc1 | inactive | –
COC(=O)CN1C(=O)COc2ccc(S(=O)(=O)N3CCCCC3)cc21 | inactive | –
O=C1NC(=O)C(Sc2ccccc2[N+](=O)[O-])C(=O)N1 | inactive | –
CO[C@@H]1CN(C)C(=O)c2ccc(NC(=O)C3CC3)cc2OC[C@@H](C)N(Cc2ccccc2)C[C@H]1C | inactive | –
CCOC(=O)N1CCN(C(=O)CN(C)S(=O)(=O)c2ccc3c(c2)c(=O)n(C)c(=O)n3C)CC1 | inactive | –
O=S(=O)(NCc1cccnc1)c1ccc(Cl)cc1 | inactive | –
COc1ccccc1-n1c(CNC(=O)c2ccc(S(=O)(=O)N3CCCCC3)cc2)n[nH]c1=S | inactive | –
O=C(C[C@@H]1C=C[C@@H](NC(=O)c2ccc(F)cc2)[C@@H](CO)O1)NCc1ccncn1 | inactive | –
O=C(NNC(=O)c1ccccc1O)c1ccccc1O | inactive | –
CC1CCN(CCCNC(=O)COc2cc(=O)n(C)c3ccccc23)CC1 | inactive | –
COc1cccc(CNC(=O)CCn2ccc3cc(S(=O)(=O)N4CCCC4)ccc32)c1 | inactive | –
O=C(CC1C(=O)NCCN1Cc1cccc(F)c1F)NCCCC1CCCC1 (stereo not drawn) | inactive | –
COc1ccccc1S(=O)(=O)N[C@@H]1C=C[C@@H](CC(=O)N2CCOCC2)O[C@H]1CO | inactive | –
CO[C@@H]1CN(C)C(=O)c2ccc(NC(C)=O)cc2OC[C@@H](C)N(C(=O)CC2CC2)C[C@@H]1C | inactive | –
C[C@H]1CN([C@@H](C)CO)C(=O)CCCn2cc(nn2)CO[C@@H]1CN(C)C(=O)CCC(F)(F)F | inactive | –
O=C(NCC(c1ccco1)N1CCc2ccccc21)c1cccc([N+](=O)[O-])c1 (stereo not drawn) | inactive | –
CN1C(=O)CC(Sc2ccccc2C(=O)O)C1=O (stereo not drawn) | inactive | –
Nc1ccc(Sc2ccccc2Cl)nc1 | inactive | –
CCOC(=O)c1sc(C)c2c(=O)n(Cc3ccc(Cl)cc3)cnc12 | inactive | –
Cc1cccc(C)c1OCC(=O)NCc1ccccc1 | inactive | –
CCC(=O)N1CCC1(C)C(=O)Nc1ccc2c(c1)CCN2C(C)=O (stereo not drawn) | inactive | –

SMILES | activity change, negative = inhibition (at 26 µM (top of the series)) | activity change, negative = inhibition (at 23.5 µM (top of the series))
N#C[C@@H]1[C@H](c2ccc(C3=CCCCC3)cc2)[C@@H](CO)N1S(=O)(=O)c1ccccc1 | – | inactive
O=C(N/N=C/c1cccc(O)c1)c1ccccc1O | inactive | –
O=C(NC(=O)c1csnn1)Nc1ccccc1Cl | inactive | –
O=C(N/N=C/c1ccc[nH]1)c1ccccc1O | inactive | –
CCC(=O)Nc1ccc2c(c1)OC[C@@H](C)N(C(=O)COC)C[C@H](C)[C@@H](OC)CN(C)C2=O | – | inactive
CCCN1C[C@@H](C)[C@@H](OC)CN(C)C(=O)c2ccc(NC(=O)c3ccccc3)cc2OC[C@H]1C | inactive | –
O=C(CCOc1ccccc1)N1CCN(S(=O)(=O)c2ccccc2F)CC1 | inactive | –
C/C(=N/NS(=O)(=O)c1ccc(Cl)cc1)c1cccc(NC(=O)c2ccncc2)c1 | inactive | –
CCN(C(=O)COC(=O)c1oc2ccccc2c1C)c1c(N)n(Cc2ccccc2)c(=O)[nH]c1=O | inactive | –
O=C(NC1CC1)c1c(O)c2ccccc2[nH]c1=O | inactive | –
CO[C@@H]1CN(C)C(=O)c2ccc(NC(C)=O)cc2OC[C@H](C)N(C(=O)CC2CC2)C[C@@H]1C | inactive | –
COc1ccc(C(=O)Nc2ccc3ccccc3c2)c(OC)c1 | inactive | –
OC(CNC1CCCCC1)COCCOc1ccc(Br)cc1 (stereo not drawn) | inactive | –
O=[N+]([O-])c1ccc2nc(-c3ccccc3[N+](=O)[O-])[nH]c2c1 | inactive | –
COCCn1c(SCCN2CCOCC2)nc2c1c(=O)[nH]c(=O)n2C | inactive | –
O=C(Nc1ccc(F)cc1)N1CCN(C(=O)C2CCCO2)CC1 (stereo not drawn) | inactive | –
CN1CCN(NC(=O)Nc2ccc(F)cc2)CC1 | inactive | –
CCCC(=O)Nc1ccc2c(c1)OC[C@H](C)N(CCC)C[C@H](C)[C@@H](OC)CN(C)C2=O | inactive | –
CN(C(=O)c1ccc(Cl)cc1)c1ccc(OCC(=O)Nc2cc(C(=O)O)ccc2Cl)cc1 | inactive | –
CCCCCc1ccc(CC(=O)N2CCOCC2)cc1 | inactive | –
O=C(Nc1ccccc1)C1CCN(S(=O)(=O)c2ccc3c(c2)OCCO3)CC1 | inactive | –
COc1cccc(N2C(=O)NC(=O)/C(=C/c3ccc([N+](=O)[O-])s3)C2=O)c1 | inactive | –
C[C@@H](NC(=O)C[C@@H]1CC[C@@H](NC(=O)CN2CCOCC2)[C@@H](CO)O1)c1ccccc1 | inactive | –
CN=C(Nc1cccnc1)c1cccc(C(F)(F)F)c1 | inactive | –
CSc1ccccc1OCc1cc(C(=O)N2CCc3c(Cl)cccc3C2)no1 | inactive | –
O=C(COC(=O)Cc1ccc(S(=O)(=O)N2CCOCC2)s1)Nc1ccc(F)cc1F | inactive | –

Reference: PubChem BioAssay AID720632 (Broad Institute, 2013)
